Patent publication US5597823A, “Tricyclic substituted hexahydrobenz [e]isoindole alpha-1 adrenergic antagonists” (priority 1995, dated 1997)
Structures can show the parent of a compound that is named as a salt.

Each molecule was assayed against T1, α-1A adrenoceptor (dog prostate) (Canis lupus, UniProt A0A8I3NK63) (assay: Functional antagonism: phenylephrine (PE)-induced contraction of canine prostate strips). Settings: Table 2b; vs phenylephrine; Schild plot.
T1 sequence (A0A8I3NK63 1-466): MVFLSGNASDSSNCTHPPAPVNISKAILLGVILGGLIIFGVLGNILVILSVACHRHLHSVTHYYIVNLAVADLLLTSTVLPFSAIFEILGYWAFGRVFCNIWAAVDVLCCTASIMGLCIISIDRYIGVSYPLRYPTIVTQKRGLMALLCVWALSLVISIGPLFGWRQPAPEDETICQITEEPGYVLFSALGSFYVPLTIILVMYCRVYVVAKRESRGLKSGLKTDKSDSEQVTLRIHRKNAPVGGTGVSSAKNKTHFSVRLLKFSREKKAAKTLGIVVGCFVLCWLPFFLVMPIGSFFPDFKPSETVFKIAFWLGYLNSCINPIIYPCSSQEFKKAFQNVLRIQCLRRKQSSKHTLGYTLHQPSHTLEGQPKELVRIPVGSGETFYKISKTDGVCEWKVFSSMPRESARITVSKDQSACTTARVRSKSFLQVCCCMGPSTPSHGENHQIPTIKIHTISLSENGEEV
Assay type: cell-based
Text: Functional assays indicative of pharmacologically defined α-1 adrenoceptors were used to further characterize compounds. Inhibition of phenylephrine (PE)-induced contraction of canine prostate smooth muscle can be correlated with α-1A adrenoceptor activation. […] For each of these models, agonist dose response curves were repeated against increasing concentrations of test agent to derive a Schild plot [log ([…]) against log (molarity of test agent)] to determine the pA2.
Canine prostate strips were used in vitro as previously described (Hieble, J. P., Boyce, A. J. and Caine, M., Fed. Proc., 45:2609-2614 (1986)), to determine antagonist potencies against phenylephrine-induced contractions.

Row | SMILES | pA2 Dog Prostate [α-1A]
1 | COc1cccc2c1CC[C@H]1CN(CCn3c(=O)[nH]c4c(ccc5cccnc54)c3=O)C[C@@H]21 [Example 83, hydrochloride] | 8.43
2 | COc1cccc2c1CC[C@H]1CN(CCn3c(=O)[nH]c4cc5[nH]cnc5cc4c3=O)C[C@@H]21 [Example 53, 7-[2-((3aR,9bR)cis-6-Methoxy-2,3,3a,4,5,9b-hexahydro,[1H]-benz[e]isoindol-1-yl)ethyl]-imidazo[4,5-g]quinazoline-6,8(1H,5H)-dione hydrochloride] | 9.25
3 | COc1cccc2c1CC[C@H]1CN(CCn3c(=O)[nH]c4c(sc5ccc([N+](=O)[O-])cc54)c3=O)C[C@@H]21 [Example 48, 3-[2-((3aR,9bR)-cis-6-Methoxy-2,3,3a,4,5,9b-hexahydro-[1H]-benz[e]isoindol-1-yl)ethyl]-[1]-8-nitro-benzothieno[3,2-d]pyrimidine-2,4(1H,3H)-dione hydrochloride] | 8.32
4 | COc1cccc2c1CC[C@H]1CN(CCn3c(=O)[nH]c4c(ccc5ncccc54)c3=O)C[C@@H]21 [Example 82, 3-[2-((3aR,9bR)cis-6-Methoxy-2,3,3a,4,5,9b-hexahydro-[1H]-benz[e]isoindol-1-yl)ethyl]-pyrido[2,3-h]quinazoline-2,4(1H,3H)-dione hydrochloride] | 9.09
5 | COc1cccc2c1CC[C@H]1CN(CCn3cnc4c(sc5ncccc54)c3=O)C[C@@H]21 [Example 34, 3-[2-((3aR,9bR)-cis-6-Methoxy-2,3,3a,4,5,9b-hexahydro-[1H]-benz[e]isoindol-1-yl)ethyl]-pyrido[3',2':4,51thieno[3,2:d]pyrimidine-4(3H)-one dihydrochloride] | 9.15
6 | COc1cc2sc3c(=O)n(CCN4C[C@@H]5CCc6c(OC)cccc6[C@@H]5C4)c(=O)[nH]c3c2cc1OC [Example 68, 3-[2-((3aR,9bR)-cis-6-Methoxy-2,3,3a,4,5,9b-hexahydro-[1H]-benz[e]isoindol-1-yl)ethyl]-[1]-7,8-dimethoxy-benzothieno[3,2-d]pyrimidine-2,4(1H,3H)-dionehydrochloride] | 7.87
7 | COc1cccc2c1CC[C@H]1CN(CCn3c(=O)c4sc5cccnc5c4n(C)c3=O)C[C@@H]21 [Example 61, dihydrochloride] | 9.5
8 | COc1cccc2c1CC[C@H]1CN(CCn3c(=O)c4sc5nccnc5c4n(C)c3=O)C[C@@H]21 [Example 95, hydrochloride] | 9.07
9 | COc1cccc2c1CC[C@H]1CN(CCn3c(=O)[nH]c4c(sc5c(C#N)cccc54)c3=O)C[C@@H]21 [Example 55, 3-[2-((3aR,9bR)-cis-6-Methoxy-2,3,3a,4,5,9b-hexahydro-[1H]-benz[e]isoindol-1-yl)ethyl]-[1]-6-cyano-benzothieno[3,2-d]pyrimidine-2,4(1H,3H)-dione hydrochloride] | 8.11
10 | COc1cccc2c1CC[C@H]1CN(CCn3c(=O)[nH]c4c(sc5c(OC)ccnc54)c3=O)C[C@@H]21 [Example 65, dihydrochloride] | 8.75
11 | CCc1cccc2c1CC[C@H]1CN(CCn3c(=O)[nH]c4c(sc5cccnc54)c3=O)C[C@@H]21 [Example 113, dihydrochloride] | 8.22
12 | COc1cccc2c1CC[C@@H]1CN(CCn3c(=O)[nH]c4c(sc5cccnc54)c3=O)C[C@H]21 [Example 78, dihydrochloride] | 7.8
13 | COc1cccc2c1CC[C@H]1CN(CCCCn3c(=O)[nH]c4c(sc5ccccc54)c3=O)C[C@@H]21 (relative stereo) [Example 12, 3-[4-(cis-6-Methoxy-2,3,3a,4,5,9b-hexahydro-[1H]-benz[e]isoindol-1-yl)butyl]-[1]benzothieno[3,2-d]pyrimidine-2,4(1H,3H)-dione hydrochloride] | 7.33
14 | COc1cccc2c1CC[C@H]1CN(CCn3c(C)nc4c(sc5ccccc54)c3=O)C[C@@H]21 (relative stereo) [Example 29, dihydrochloride] | 7.43
15 | COc1cccc2c1CC[C@H]1CN(CCn3c(=O)[nH]c4c5c(sc4c3=O)CCCC5)C[C@@H]21 (relative stereo) [Example 22, hydrochloride] | 8.32
16 | COc1cccc2c1CC[C@H]1CN(CCn3c(=O)[nH]c4c(sc5ccc(C)cc54)c3=O)C[C@@H]21 [Example 74, 3-[2,((3aR,9bR)-cis-6-Methoxy-2,3,3a,4,5,9b-hexahydro-[1H]-benz[e]isoindol-1-yl)ethyl]-[1]-8-methyl-benzothieno[3,2-d]pyrimidine-2,4(1H,3H)-dione hydrochloride] | 8.7
17 | COc1cccc2c1CC[C@H]1CN(CCn3c(=O)[nH]c4c(sc5cccc(Cl)c54)c3=O)C[C@@H]21 [Example 72, 3-[2-((3aR,9bR)-cis-6-Methoxy-2,3,3a,4,5,9b-hexahydro-[1H]-benz[e]isoindol-1-yl)ethyl]-[1]-9-chloro-benzothieno[3,2-d]pyrimidine-2,4(1H,3H)-dione hydrochloride] | 8.38
18 | COc1cccc2c1CC[C@H]1CN(CCn3c(=O)[nH]c4c(sc5ccncc54)c3=O)C[C@@H]21 [Example 38, 3-[2-((3aR,9bR)-cis-6-Methoxy-2,3,3a,4,5,9b-hexahydro-[1H]-benz[e]isoindol-1-yl)ethyl]1-pyrido[3',4':4,5]thieno[3,2-d]pyrimidine-2,4(1H,3H)-dione dihydrochloride] | 9.75
19 | O=c1[nH]c2c(sc3ncccc32)c(=O)n1CCN1C[C@@H]2CCc3c(ccc4c3OCO4)[C@@H]2C1 (relative stereo) [Example 111, hydrochloride] | 8.00
20 | COc1cccc2c1CC[C@H]1CN(CCn3c(=O)[nH]c4c(sc5nc(-c6ccccc6)c(-c6ccccc6)nc54)c3=O)C[C@@H]21 [Example 100, 3-[2-(cis-(3aR,9bR)-6-Methoxy-2,3,3a,4,5,9b-hexahydro-[1H]-benz[e]isoindol-1-yl)ethyl]-7,8-diphenylpyrazino[2',3':4,5]thieno[3,2-d]pyrimidine-2,4(1H,3H)-dione hydrochloride] | 6.92
21 | COc1cccc2c1CC[C@H]1CN(CCn3c(=O)[nH]c4sc5c(c4c3=O)CCCC5)C[C@@H]21 (relative stereo) [Example 7, 3-[2-(cis-6-Methoxy-2,3,3a4,5,9b-hexahydro-[1H]-benz[e]isoindol-1-yl)ethyl]-[1]-5,6,7,8-tetrahydrobenzothieno[2,3-d]pyrimidine-2,4(1H,3H)-dione hydrochloride] | 7.85
22 | CCCCn1c(=O)n(CCN2C[C@@H]3CCc4c(OC)cccc4[C@@H]3C2)c(=O)c2sc3nccnc3c21 [Example 101, hydrochloride] | 7.31
23 | COc1cccc2c1[C@H]1CN(CCn3c(=O)[nH]c4c(sc5ccccc54)c3=O)C[C@H]1CC2 [Example 19, hydrochloride] | 6.66
24 | COc1cccc2c1CC[C@H]1CN(CCn3c(=O)[nH]c4c(sc5cc(Cl)ccc54)c3=O)C[C@@H]21 [Example 57, 3-[2-((3aR,9bR)-cis-6-Methoxy-2,3,3a,4,5,9b-hexahydro-[1H]-benz[e]isoindol-1-yl)ethyl]-[1]-7-chloro-benzothieno[3,2-d]pyrimidine-2,4(1H,3H)-dione hydrochloride] | 7.43
25 | CCn1c(=O)n(CCN2C[C@@H]3CCc4c(OC)cccc4[C@@H]3C2)c(=O)c2sc3nccnc3c21 [Example 98, hydrochloride] | 9.39
